Experiments:
[1] = test system: differentiation of osteoclasts in co-culture of bone marrow cells and osteoblasts; experiment: Osteoclast differentiation in co-culture of osteoblasts and bone marrow cells (TRAP staining); type: cell-based, ICR mice; details: for Inhibitory activity on osteoclast differentiation in co-culture of bone marrow cells and osteoblasts: 4 μM; for TRAP-positive osteoclast cell number: co-culture, vitamin D3 and PGE2, 6 days, control 397+36.75
Protocol: (§1) Primary osteoblasts, bone marrow cells and osteoclast precursor cells were cultured in α-Minimum Essential Medium (α-MEM, Gibco BRL) supplemented with 10% (v/v) fetal bovine serum (Gibco BRL), and 1× antibiotics containing penicillin/streptomycin (Gibco BRL).
Until now, osteoclast cell lines have not been established, making it difficult to study differentiation of osteoclasts. Osteoclasts originate from hematopoietic stem cells derived from bone marrow, and differentiate with the help of osteoblasts/stromal cells. For these reasons, the co-culture system of osteoblasts and bone marrow cells is used for differentiation of osteoclasts. In these Experimental Examples, a differentiation system of bone marrow cells to osteoclasts was established by co-culture of osteoblasts and bone marrow cells, and, in this system, the CHJ-0014 compound was evaluated for its inhibitory effect on differentiation of osteoclasts.
After sacrificing one-day postnatal ICR mice and disinfecting them in 70% ethanol, calvarias were collected using surgical scissors and forceps, cut into several pieces, and transferred into 3× HBSS contained in a 60-mm culture dish. 0.1% collagenase (Gibco BRL) and 0.2% dispase (Boehringer Mannheim) were added to the solution, followed by incubation at 37° C. for 15 min. The treatment of calvarias with collagenase and dispase was repeated 4 more times. From the second treatment of calvarias with collagenase and dispase, the solution was centrifuged after each treatment at 1600 rpm for 5 min to harvest cells, thereby collecting osteoblasts. The collected osteoblasts were plated onto a 100-mm culture dish at a density of about 1-2×10^6 cells, and cultured in 15 ml of α-MEM supplemented with 10% FBS for 3 days. Thereafter, the proliferated osteoblasts were aliquotted into cryo-vials, and stored in liquid nitrogen until use in co-culture of osteoblasts and bone marrow cells.
(§2) After sacrificing 6-7 week ICR female mice by cervical dislocation and disinfecting their rear legs in 70% ethanol, tibias were isolated aseptically. The isolated tibias were placed into 3× HBSS (Gibco BRL), and soft tissue was completely removed. Both ends of tibias were cut, and 1×α-MEM was injected into bone marrow and then sucked up using a 1 ml syringe, collecting bone marrow cells. After sufficient suspending by pipetting, the collected bone marrow cells were centrifuged at 1600 rpm for 5 min to harvest cells. The resulting pellet (bone marrow cells and erythrocytes) was suspended in about 15-20 ml of ACK buffer (155 mM NH4Cl, 11 mM KHCO3, 0.01 mM EDTA). After incubation for 2 min, phosphate buffer was added to the cell suspension to minimize damage to bone marrow cells and lyse erythrocytes.
(§3) Thereafter, the cell suspension was centrifuged (1600 rpm, 5 min), and the resulting cell pellet was suspended in 10% FBS-containing α-MEM.
The isolated and cultured osteoblasts and bone marrow cells were co-cultured, as follows. Bone marrow cells and osteoblasts were plated onto a 48-well plate at a density of 2×10^5 cells and 2×10^4 cells per well, respectively, and co-cultured in 10% FBS-containing x-MEM. After adding vitamin D3 (10^−8 M) and PGE 2 (Prostaglandin E 2, 10^−6 M) to the culture medium, the cells were treated with the CHJ-0014 compound at various concentrations of 1.65 μM, 3.3 μM and 6.6 μM. A co-culture group not treated with the CHJ-0014 compound was used as a control. When the culture medium was exchanged with a fresh medium after incubation for 3 days, vitamin D3 (10^−8 M) and PGE 2 (10^−6 M) were again added to the medium, and the CHJ-0014 compound was also added to the medium at the same concentrations as above.
After incubation for 6 days, the culture medium was removed, and completely differentiated osteoclasts were fixed with 10% formalin for 5 min. After removing formalin, the fixed osteoclasts were treated with 0.1% Triton X-100 for 10 sec. […]

[2] = test system: osteoclast precursor cells; experiment: Differentiation of osteoclast precursor cells isolated from bone, ODF and M-CSF (TRAP staining); type: cell-based, ICR mice; details: for TRAP-positive osteoclast cell number: osteoclast precursor cells, ODF 100 ng/ml, M-CSF 30 ng/ml, day 9, control 344±43.7
Protocol: as §1
Osteoclast progenitors derived from bone marrow cells migrate eventually to bone, differentiate to osteoclast precursors therein, and further differentiate to active osteoclasts having bone resorption ability and participate in bone resorption. That is, osteoclast precursor cells present in bone are at a different differentiation stage from the active osteoclasts. Recently, a cytokine playing a critical role in osteoclast differentiation was identified to be ODF (also called OPGL or RANKL), and a recombinant ODF protein can be produced on a large scale, thereby facilitating osteoclast differentiation by primary cell culture.
Osteoclast precursor cells were isolated from […]. After sacrificing 5-6 week ICR female mice by cervical dislocation and disinfecting their rear legs in 70% ethanol, tibias and femurs were isolated aseptically. After removing soft tissue according to the same method as in Example 2 from the isolated tibias and femurs, 3× HBSS (Gibco BRL) was injected into bone marrow several times, thereby collecting bone marrow cells, as follows. Bone was cut into small pieces using a surgical scissor, and incubated in a collagenase solution (1 mg/ml collagenase type II, 0.05% trypsin, 4 mM EDTA, Gibco BRL) contained in a culture dish at 37° C. for 15 min. The collagenase treatment was carried out 4 more times. After being treated three times, bone pieces were further cut into a smaller size. After one more treatment with collagenase, the bone pieces were washed with 3× HBSS five times. After completely removing the enzyme solution by centrifugation, the bone pieces were suspended in pre-cooled α-MEM, and placed onto ice for 15 min. After vortexing for 1 min, an equal volume of α-MEM was added to the bone suspension, followed by incubation on ice for 15 min. The bone suspension was filtered through a sterilized mass, and the obtained cells were cultured in 10% FBS-containing α-MEM.
The isolated and cultured osteoclast precusor cells were plated onto a 48-well plate at a density of 0.5×10^6 cells. After adding ODF (100 ng/ml) and M-CSF (30 ng/ml) to the medium, the cells were treated with the CHJ-0014 compound at various concentrations of 0.825 μM, 1.65 μM, 3.3 μM and 6.6 μM. A group not treated with the CHJ-0014 compound was used as a control. When the culture medium was exchanged with a fresh medium after incubation for 3 days, the cells were again treated with the identical amount of ODF, M-CSF and CHJ-0014. On day 6 after culturing, the culture medium was exchanged with a fresh medium, according to the same method as in on day 3. On day 9, TRAP staining was carried out, and TRAP-positive osteoclasts were counted under an optical microscope (×100).

[3] = test system: transcription factor NF-κB; experiment: NF-κB activity by EMSA (electrophoresis mobility shift assay) in osteoclasts; type: cell-based; details: osteoclast nuclear extract
Protocol: The CHJ-0014 compound was investigated for its inhibitory effect on the activity of the transcription factor NF-κB participating in osteoclast differentiation by performing EMSA (electrophoresis mobility shift assay). Osteoclasts were prepared according to the same method as in Experimental Experiment 3, and incubated in hypotonic lysis buffer (10 mM HEPES, pH 7.9, 1.5 mM MgCl2, 10 mM KCl, 0.5 mM DTT, 0.5 mM PMSF) on ice for 10 min. The osteoclast-containing solution was transferred into a microcentrifuge, supplemented with 0.1% NP40, and incubated for 15 min with occasional agitation. After centrifugation (4,000 rpm, 15 min), the resulting cell pellet was suspended in 15 μl of high salt buffer (20 mM HEPES, pH 7.9, 420 mM NaCl, 25% glycerol, 1.5 mM MgCl2, 0.2 mM EDTA, 0.5 mM PMSF, 0.5 mM DTT), and placed onto ice for 20 min. 75 μl of storage buffer (20 mM HEPES, pH 7.9, 100 mM NaCl, 20% glycerol, 0.2 mM EDTA, 0.5 mM PMSF, 0.5 mM DTT) was added to the cell suspension, and incubated with agitation for 10 sec. After centrifugation (14,000 rpm, 20 min), the resulting supernatant was subjected to protein quantitative assay. Protein assay was performed using a DC Protein Assay Kit (Bio-Rad).
A NF-κB-specific oligomer (5′-AGTTGAGGGGACTTTCCCA GGC-3′, Santa Cruz) was radiolabeled using [γ-^32P]ATP and […], and used as a probe. […]

murine bone marrow cells = experiment: Cytotoxicity by MTT assay, bone marrow cells; type: cell-based; details: 6.6 μM, 24 hrs
[4] = test system: human embryonic kidney cell line 293T; experiment: Cytotoxicity by MTT assay, 293T cells; type: cell-based; details: 6.6 μM, 24 hrs
[5] = test system: differentiation of osteoclasts in culture of bone marrow cells; experiment: Osteoclast differentiation in culture of bone marrow cells induced by ODF and M-CSF (TRAP staining); type: cell-based, ICR mice; details: for TRAP-positive osteoclast cell number: bone marrow cells, ODF 50 ng/ml, M-CSF 30 ng/ml, control 240±44
Protocol: as §1, §2, §3
In this test, to evaluate this possible scenario, only bone marrow cells were treated with a recombinant ODF protein and inhibitory activity of the CHJ-0014 compound on osteoclast differentiation was investigated in culture of only bone marrow cells. Bone marrow cells, isolated according to the same method as in Experimental Example 1, were plated onto a 48-well plate at a density of 4×10^5 cells, and cultured in 10% FBS-containing α-MEM. After adding ODF (50 ng/ml) and M-CSF (30 ng/ml) to the medium, the cells were treated with the CHJ-0014 compound at various concentrations of 0.825 μM, 1.65 μM, 3.3 μM and 6.6 μM. When the culture medium was exchanged with a fresh medium after incubation for 3 days, the cells were again treated with the identical amount of ODF, M-CSF and CHJ-0014. After incubation for 6 days, the culture medium was exchanged with a fresh medium, and the cells were further cultured for 2 more days.
Completely differentiated osteoclasts were identified by TRAP staining. TRAP staining was carried out using the Leukocyte Acid Phosphatase Kit (Sigma, Cat. No. 387-A). The culture medium was removed, and completely differentiated osteoclasts were fixed with 10% formalin for 5 min. After removing formalin, the fixed osteoclasts were treated with 0.1% Trypton X-100 for 10 sec. After removing Trypton X-100, the cells were stained with a TRAP staining solution in the kit for 5 min. After eliminating the TRAP staining solution, the cells were washed with distilled water twice, dried, and TRAP-positive osteoclasts were counted under an optical microscope (×100).

osteoblasts = experiment: Cytotoxicity by MTT assay, osteoblasts; type: cell-based, ICR mice; details: 6.6 μM, 24 hrs
peritoneal macrophages = experiment: Cytotoxicity by MTT assay, peritoneal macrophages; type: cell-based; details: 6.6 μM, 24 hrs

| Compound | Inhibitory activity on osteoclast differentiation in co-culture of bone marrow cells and osteoblasts [1] | TRAP-positive osteoclast cell number ([2]; 0.825 μM) | TRAP-positive osteoclast cell number ([2]; 1.65 μM) | TRAP-positive osteoclast cell number ([2]; 3.3 μM) | TRAP-positive osteoclast cell number ([2]; 6.6 μM) | Effect on osteoclast differentiation during differentiation of osteoclast precursors isolated from bone ([2]; 0.825-6.6 μM) | Effect on activation of the transcription factor NF-κB by osteoclast differentiation factor (ODF) [3] | Cytotoxicity (MTT) (murine bone marrow cells) | Cytotoxicity (MTT) [4] | TRAP-positive osteoclast cell number ([1]; 1.65 μM) | TRAP-positive osteoclast cell number ([1]; 3.3 μM) | TRAP-positive osteoclast cell number ([1]; 6.6 μM) | Effect on differentiation of osteoclasts in co-culture of bone marrow cells and osteoblasts ([1]; 1.65-6.6 μM) | TRAP-positive osteoclast cell number ([5]; 0.825 μM) | TRAP-positive osteoclast cell number ([5]; 1.65 μM) | TRAP-positive osteoclast cell number ([5]; 3.3 μM) | TRAP-positive osteoclast cell number ([5]; 6.6 μM) | Effect on osteoclast differentiation induced by ODF in bone marrow cells ([5]; 0.825-6.6 μM) | Cytotoxicity (MTT) (osteoblasts) | Cytotoxicity (MTT) (peritoneal macrophages) |
| --- | --- | --- | --- | --- | --- | --- | --- | --- | --- | --- | --- | --- | --- | --- | --- | --- | --- | --- | --- | --- |
| CCCCCCCCCCCCCCCCCC(=O)NC(CO)COP(=O)([O-])OCC[N+](C)(C)C [CHJ-0013, N-stearoyl-O-phosphocholine-L-serine methylhydroxy] | inhibit osteoclast differentiation |  |  |  |  |  |  |  |  |  |  |  |  |  |  |  |  |  |  |  |
| CCCCCCCCCCCCCCCCCC(=O)NC(CO)COP(=O)(O)OCC[N+](C)(C)C [CHJ-0014, N-stearoyl-O-phosphocholine-D-serine methylhydroxy] | inhibit osteoclast differentiation | 318±19.3 | 318±50.4 | 267±24 | 152±29.1 | inhibits osteoclast differentiation during differentiation of osteoclast precursors isolated from bone in a dose-dependent manner | suppress activation of the transcription factor NF-κB | did not show cytotoxicity | did not show cytotoxicity | 80±6.1 | 46±4.7 | 16±6.4 | inhibits differentiation of osteoclasts in co-culture of bone marrow cells and osteoblasts in a dose-dependent manner | 185±12.9 | 172+9.3 | 87+3.5 | 36+3.6 | inhibits osteoclast differentiation induced by ODF in bone marrow cells in a dose-dependent manner | did not show cytotoxicity | did not show cytotoxicity |

From patent US20050014722A1, “Process for preparing n-acylated lysophosphatidylcholine and pharmaceutical composition for treatment of metabolic bone disease comprising said compounds” (priority 2001, published 2005)
